Measured values from patent publication EP4410284A1, “COMPOUND AND METHOD FOR THE TREATMENT OF ZELLWEGER SPECTRUM DISORDER” (Apteeus, priority 2023, dated 2024).
Where a name gives a salt, the structure may show the parent alone. Read-outs that look alike come from different tables or passages of the source.

Columns and labels:
GM16513 cells [1] = test: Catalase import immunofluorescence, high-content screening (% importing cells); assay type: cell-based, human; settings: GM16513 cells, 3 days; for EC50 / Emax: Homo sapiens, 72 h, dose response with 6 concentrations; for EC50: read-out: EC50; for Emax: read-out: Max Efficacy (% Importing cells)
GM16513 cells [2] = assay type: cell-based; settings: 3 days, PI positive cells (dead cells)
Protocol: (§4) Images were acquired using the EnSight multimode plate reader (PerkinElmer) and analysis was done using Columbus analysis software (PerkinElmer). […] Then the total number of cells and the % of dead cells was calculated.
(§5) All HDAC inhibitors were tested at 1.3 and 10 µM for 3 days on GM16513 and PEX405 cells.

PEX405 cells = assay type: cell-based; settings: 3 days, PI positive cells (dead cells)
Protocol: as §4, §5

GM16513 cells [3] = test: Plasmalogens synthesis (LC-MS/MS); assay type: cell-based, human
Protocol: The assay was performed in T75 culture flasks for 3 or 10 days. The medium was replaced by fresh medium every 2-3 days. After 3 or 10 days, the cells were harvested and lysated in water (100-200 µL) by freeze/thaw cycle and sonication for 5 min. Total proteins were quantified using BCA assay and 100 µg of total proteins were used for each sample.
After cell lysis, the samples were dried using a rotating evaporator (Genevac EZ-2, SP Scientific), set at 40°C for 2h under vacuum. Then a solution containing water/acetonitrile 20/80 v/v was added to the wells. Before analysis, the samples were centrifuged at 4000 rpm for 20 min at room temperature. For the separation of plasmalogens by liquid chromatography, a Waters Acquity ultra-performance liquid chromatography (UPLC) system (Acquity I-Class, Waters) was used. A Waters Acquity UPLC BEH (Ethylene Bridged Hybrid) C8 column (2.1 × 50mm, particle size 1.7 µm, pore size 130 A, 2.1mm inner diameter) preceded by a metal pre-filter (KrudKatcher Ultra HPLC In-Line Filter, AF0-8497, Phenomenex) was used for separation. The column temperature was maintained at 50°C. The injection volume was 5µL for each analysis. The mobile phase A was composed of water + 0.1% formic acid and the mobile phase B was methanol + 0.1% formic acid. The separation was done using a gradient, with a flow rate set at 0.7 mL/min throughout the separation:
During analysis, the samples were kept at 10°C, and 5 µL of each sample were injected. After separation by liquid chromatography, the analytes were subjected to MS/MS analysis using a Waters Xevo TQSmicro system (Waters). The analytes were ionized using positive electrospray ionization (positive ESI). The molecules were analyzed using MRM mode. The analyzed plasmalogens contained moieties with C16:0, C18:0, C18:1 at the sn-1 position and fatty acid of chain-length 18 to 24 with 1 to 6 unsaturations at the sn-2 position. […] The cellular levels of plasmalogens were calculated using the area of each plasmalogen divided by protein quantity. […] The acquired data were analyzed by the Waters MassLynx software.

GM11335 = test: Catalase import immunofluorescence (% importing cells); assay type: cell-based, human; settings: GM11335 (PEX26); for Importing cells (%): at the lower dose leading to the maximum effect (see E20)
Protocol: (§1) Primary fibroblasts were seeded at 500-700 cells per well in 384-well plates and grown at 37°C overnight. Cells were treated with test compounds or 0.1% DMSO for 3 days. After 3 days and a wash with PBS, cells were fixed with 4% paraformaldehyde (Electron Microscopy Sciences) in PBS for 20 minutes. After 3 washes with PBS, the cells were permeabilized and blocked with 0.3% Triton X-100, 1% BSA in PBS for 30 minutes at room temperature followed by 3 washes with 1% BSA in PBS. The cells were incubated with a rabbit Catalase polyclonal antibody (#12980 Cell signaling) overnight at 4°C. Following 3 washes with PBS containing 0.1% Tween-20, the cells were incubated for 1 h at room temperature with a conjugated goat anti-rabbit secondary antibody Alexa Fluor 647 (Ab150083-Abcam). The cells were then washed 3 times with PBS and Hoechst 33342 (H3570-ThermoFisher Scientific) + HCS Cellmask Blue (H32720 - ThermoFisher Scientific) staining was performed at 0.1 µg/ml and 0.4 µg/mL respectively for 30 minutes at room temperature. The cells were finally washed 3 times with PBS and fluorescent images were acquired using the INCell Analyzer 6000 imaging platform (GE Healthcare Life Sciences).
(§2) Images analysis was done using Columbus analysis software (PerkinElmer). DAPI channel was used to find nuclei (Hoechst 33342) and cytoplasm (HCS CellMask Blue) and border objects were removed. Cy5 channel (AlexaFluor 647) was used to find spots corresponding to peroxisomes which correctly import catalase. Cells were classified as importing or non-importing cells using a linear classifier method after training with images of wells containing Healthy cells and PEX1 deficient cells. The number of importing or non-importing cells was calculated. Finally, results were expressed as % of importing cells.
(§3) Among the HDAC inhibitors of example 2, 4 were tested on other cells which are PEX1, PEX6 or PEX26 deficient.

GM 16865 = test: as above; assay type: cell-based, human; settings: GM 16865 (PEX26); for Importing cells (%): at the lower dose leading to the maximum effect (see E22)
Protocol: as §1, §2, §3

GM 17398 = test: as above; assay type: cell-based, human; settings: GM 17398 (PEX26 deficient); for Importing cells (%): at the lower dose leading to the maximum effect (see E24)
Protocol: as §1, §2, §3

PEX607 = test: as above; assay type: cell-based, human; settings: PEX607 (PEX6); for Importing cells (%): at the lower dose leading to the maximum effect (see E18)
Protocol: as §1, §2, §3

PEX304 = test: as above; assay type: cell-based, human; settings: PEX304 (PEX1); for Importing cells (%): at the lower dose leading to the maximum effect (see E14)
Protocol: as §1, §2, §3

PEX506 = test: as above; assay type: cell-based, human; settings: PEX506 (PEX6); for Importing cells (%): at the lower dose leading to the maximum effect (see E16)
Protocol: as §1, §2, §3

## O=C(/C=C/c1cccc(S(=O)(=O)Nc2ccccc2)c1)NO [Belinostat]
GM16513 cells [1]; 1.3 µM
  % Importing cells: 95%
GM16513 cells [1]; 10 µM
  % Importing cells: 97%
GM16513 cells [1]
  EC50: 200 nM
  Emax: 98%
GM16513 cells [2]; 1.3 µM
  % PI+ cells: 4%
GM16513 cells [2]; 10 µM
  % PI+ cells: 21%
PEX405 cells; 1.3 µM
  % PI+ cells: 1%
PEX405 cells; 10 µM
  % PI+ cells: 42%
GM16513 cells [3]; 0.5 µM over 3 or 10 days
  plasmalogen levels: increased
GM11335
  Concentration (lower dose leading to the maximum effect): 0.85 µM
  Importing cells (%): 30%
GM 16865
  Concentration (lower dose leading to the maximum effect): 0.85 µM
  Importing cells (%): 35%
GM 17398
  Concentration (lower dose leading to the maximum effect): 2.5 µM
  Importing cells (%): 0%
PEX607
  Concentration (lower dose leading to the maximum effect): 0.85 µM
  Importing cells (%): 43%
PEX304
  Concentration (lower dose leading to the maximum effect): 2.5 µM
  Importing cells (%): 11%
PEX506
  Concentration (lower dose leading to the maximum effect): 0.25 µM
  Importing cells (%): 64%

## CCN(CC)Cc1ccc2cc(COC(=O)Nc3ccc(C(=O)NO)cc3)ccc2c1 [Givinostat (hydrochloride monohydrate), Givinostat]
GM16513 cells [1]; 1.3 µM
  % Importing cells: 81%
GM16513 cells [1]; 10 µM
  % Importing cells: 32%
GM16513 cells [1]
  EC50: 170 nM
  Emax: 80%
GM16513 cells [2]; 1.3 µM
  % PI+ cells: 6%
GM16513 cells [2]; 10 µM
  % PI+ cells: 29%
PEX405 cells; 1.3 µM
  % PI+ cells: 3%
PEX405 cells; 10 µM
  % PI+ cells: 41%
GM16513 cells [3]; treatment over 3 days
  plasmalogen levels: increased
GM11335
  Concentration (lower dose leading to the maximum effect): 0.087 µM
  Importing cells (%): 20%
GM 16865
  Concentration (lower dose leading to the maximum effect): 0.25 µM
  Importing cells (%): 20%
GM 17398
  Concentration (lower dose leading to the maximum effect): 2.5 µM
  Importing cells (%): 0%
PEX607
  Concentration (lower dose leading to the maximum effect): 0.25 µM
  Importing cells (%): 42%
PEX304
  Concentration (lower dose leading to the maximum effect): 0.85 µM
  Importing cells (%): 5%
PEX506
  Concentration (lower dose leading to the maximum effect): 0.087 µM
  Importing cells (%): 69%
